In one test the target is T1, EGFR tyrosine kinase (Homo sapiens, UniProt P00533).
T1 construct: Recombinant intracellular fragments of EGFR, erbB2 and erbB4; made in house; host or cells: baculovirus/Sf21 insect cells (cleared lysate used)
In words: Protein tyrosine kinase phosphorylation assay, Test (a), EGFR. The format is biochemical. Particulars: recombinant intracellular fragment, ATP at Km; read-out: IC50 (μM) Test (a): Inhibition of EGFR tyrosine kinase protein phosphorylation. How it is done: (§1) a) Protein Tyrosine Kinase phosphorylation Assays
(§2) This test measures the ability of a test compound to inhibit the phosphorylation of a tyrosine containing polypeptide substrate by an erb receptor tyrosine kinase enzyme.
(§3) Recombinant intracellular fragments of EGFR, erbB2 and erbB4 (accession numbers X00588, X03363 and L07868 respectively) were cloned and expressed in the baculovirus/Sf21 system. Lysates were prepared from these cells by treatment with ice-cold lysis buffer (20 mM N-2-hydroxyethylpiperizine-N′-2-ethanesulfonic acid (HEPES) pH7.5, 150 mM NaCl, 10% glycerol, 1% Triton X-100, 1.5 mM MgCl2, 1 mM ethylene glycol-bis(β-aminoethyl ether) N′,N′,N′,N′-tetraacetic acid (EGTA), plus protease inhibitors and then cleared by centrifugation.
(§4) Constitutive kinase activity of these recombinant proteins was determined by their ability to phosphorylate a synthetic peptide (made up of a random co-polymer of Glutamic Acid, Alanine and Tyrosine in the ratio of 6:3:1). Specifically, Maxisorb™ 96-well immunoplates were coated with synthetic peptide (0.2 μg of peptide in a 200 μl phosphate buffered saline (PBS) solution and incubated at 4° C. overnight). Plates were washed in 50 mM HEPES pH 7.4 at room temperature to remove any excess unbound synthetic peptide. […]
(§5) The immobilised phospho-peptide product of the reaction was detected by immunological methods. […] After further washing, HRP activity in each well of the plate was measured colorimetrically using 22′-Azino-di-[3-ethylbenzthiazoline sulfonate (6)]diammonium salt crystals (ABTS™ from Roche) as a substrate.
(§6) Quantification of colour development and thus enzyme activity was achieved by the measurement of absorbance at 405 nm on a Molecular Devices ThermoMax microplate reader. Kinase inhibition for a given compound was expressed as an IC50 value. […] The range of phosphorylation was calculated from the positive (vehicle plus ATP) and negative (vehicle minus ATP) control values.

A further test concerns the target T2, erbB2 tyrosine kinase (Homo sapiens, UniProt P04626).
T2 construct: Recombinant intracellular fragments of EGFR, erbB2 and erbB4; made in house; host or cells: baculovirus/Sf21 insect cells (cleared lysate used)
In words: Protein tyrosine kinase phosphorylation assay, Test (a), erbB2. It counts as biochemical. Particulars: recombinant intracellular fragment, ATP at Km; read-out: IC50 (μM) Test (a): Inhibition of erbB2 tyrosine kinase protein phosphorylation. How it is done: as §1, §2, §3, §4, §5, §6

Test [1] deals with T3, erbB2 in a MCF7 derived cell line (Clone 24 cells) (Homo sapiens, UniProt P04626).
T3 construct: to give a cell line that overexpresses full length wild type erbB2 protein; expressed in transfected cells
T3 sequence (P04626 23-1255): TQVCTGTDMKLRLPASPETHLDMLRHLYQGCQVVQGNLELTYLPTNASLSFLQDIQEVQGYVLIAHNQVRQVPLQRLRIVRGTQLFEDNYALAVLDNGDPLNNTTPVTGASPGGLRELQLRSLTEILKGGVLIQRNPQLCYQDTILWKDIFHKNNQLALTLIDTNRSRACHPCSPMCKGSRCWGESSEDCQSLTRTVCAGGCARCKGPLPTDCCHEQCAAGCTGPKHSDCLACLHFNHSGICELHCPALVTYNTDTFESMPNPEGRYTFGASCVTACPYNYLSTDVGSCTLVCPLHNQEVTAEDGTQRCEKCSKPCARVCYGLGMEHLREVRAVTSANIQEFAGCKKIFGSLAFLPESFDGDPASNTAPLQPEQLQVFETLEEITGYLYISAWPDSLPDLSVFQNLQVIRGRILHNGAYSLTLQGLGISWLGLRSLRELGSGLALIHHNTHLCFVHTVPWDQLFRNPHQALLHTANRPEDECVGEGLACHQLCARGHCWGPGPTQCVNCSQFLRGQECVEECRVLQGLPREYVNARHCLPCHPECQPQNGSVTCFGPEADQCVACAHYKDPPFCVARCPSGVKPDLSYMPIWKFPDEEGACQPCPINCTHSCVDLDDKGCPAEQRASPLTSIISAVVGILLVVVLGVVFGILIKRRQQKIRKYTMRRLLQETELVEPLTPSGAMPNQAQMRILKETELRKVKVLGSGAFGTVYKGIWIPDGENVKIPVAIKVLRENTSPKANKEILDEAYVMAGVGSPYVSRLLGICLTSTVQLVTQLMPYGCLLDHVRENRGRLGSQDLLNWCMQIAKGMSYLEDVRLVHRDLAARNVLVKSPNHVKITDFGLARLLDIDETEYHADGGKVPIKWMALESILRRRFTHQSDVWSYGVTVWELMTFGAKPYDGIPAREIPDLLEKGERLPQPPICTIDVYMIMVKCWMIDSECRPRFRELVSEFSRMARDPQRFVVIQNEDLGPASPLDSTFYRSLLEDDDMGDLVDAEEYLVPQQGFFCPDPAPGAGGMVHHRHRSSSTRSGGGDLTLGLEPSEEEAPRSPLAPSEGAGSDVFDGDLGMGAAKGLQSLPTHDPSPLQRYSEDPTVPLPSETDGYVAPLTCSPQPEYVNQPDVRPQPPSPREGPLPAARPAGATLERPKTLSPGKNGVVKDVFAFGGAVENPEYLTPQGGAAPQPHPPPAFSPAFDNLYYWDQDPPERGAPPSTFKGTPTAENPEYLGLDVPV
In words: Clone 24 phospho-erbB2 cell assay, Test (d). The format is cell-based. As to conditions: 4 hours, read-out: IC50 (μM) Test (d): Inhibition of erbB2 tyrosine kinase protein phosphorylation. How it is done: d) Clone 24 Phospho-erbB2 Cell Assay
This immunofluorescence end point assay measures the ability of a test compound to inhibit the phosphorylation of erbB2 in a MCF7 (breast carcinoma) derived cell line which was generated by transfecting MCF7 cells with the full length erbB2 gene using standard methods to give a cell line that overexpresses full length wild type erbB2 protein (hereinafter ‘Clone 24’ cells).
Clone 24 cells were cultured in Growth Medium (phenol red free Dulbecco's modified Eagle's medium (DMEM) containing 10% foetal bovine serum, 2 mM glutamine and 1.2 mg/ml G418) in a 7.5% CO2 air incubator at 37° C. Cells were harvested from T75 stock flasks by washing once in PBS (phosphate buffered saline, pH7.4, Gibco No. 10010-015) and harvested using 2 mls of Trypsin (1.25 mg/ml)/ethylaminediaminetetraacetic acid (EDTA) (0.8 mg/ml) solution. The cells were resuspended in Growth Medium. Cell density was measured using a haemocytometer and viability was calculated using Trypan Blue solution before being further diluted in Growth Medium and seeded at a density of 1×10^4 cells per well (in 10 ul) into clear bottomed 96 well plates (Packard, No. 6005182).
3 days later, Growth Medium was removed from the wells and replaced with 100 ul Assay Medium (phenol red free DMEM, 2 mM glutamine, 1.2 mg/ml G418) either with or without erbB inhibitor compound. Plates were returned to the incubator for 4 hours and then 20 μl of 20% formaldehyde solution in PBS was added to each well and the plate was left at room temperature for 30 minutes. This fixative solution was removed with a multichannel pipette, 100 μl of PBS was added to each well and then removed with a multichannel pipette and then 50 μl PBS was added to each well. Plates were then sealed and stored for up to 2 weeks at 4° C.
Immunostaining was performed at room temperature. […]
The Fluorescence signal is each well was measured using an Acumen Explorer Instrument (Acumen Bioscience Ltd.), a plate reader that can be used to rapidly quantitate features of images generated by laser-scanning. […]

From patent US7625908B2, “Quinazoline derivatives” (AstraZeneca AB, priority 2003, dated 2009) come the findings set out here.

T1 sequence (P00533 669-1210 limits assumed): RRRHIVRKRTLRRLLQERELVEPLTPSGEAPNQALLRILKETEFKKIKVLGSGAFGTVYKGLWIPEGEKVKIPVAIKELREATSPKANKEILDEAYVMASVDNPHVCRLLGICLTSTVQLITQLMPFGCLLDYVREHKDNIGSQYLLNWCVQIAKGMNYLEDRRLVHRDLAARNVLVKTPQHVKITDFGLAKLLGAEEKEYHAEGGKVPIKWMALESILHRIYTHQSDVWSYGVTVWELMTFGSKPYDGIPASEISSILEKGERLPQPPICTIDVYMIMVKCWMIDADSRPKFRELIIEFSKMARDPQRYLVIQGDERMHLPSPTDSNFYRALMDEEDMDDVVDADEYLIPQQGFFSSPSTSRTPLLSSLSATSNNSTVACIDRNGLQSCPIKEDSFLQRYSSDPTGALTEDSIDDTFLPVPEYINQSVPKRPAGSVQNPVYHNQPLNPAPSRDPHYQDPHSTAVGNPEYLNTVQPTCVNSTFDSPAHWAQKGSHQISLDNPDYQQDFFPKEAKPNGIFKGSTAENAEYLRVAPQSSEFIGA
T2 sequence (P04626 676-1255 limits assumed): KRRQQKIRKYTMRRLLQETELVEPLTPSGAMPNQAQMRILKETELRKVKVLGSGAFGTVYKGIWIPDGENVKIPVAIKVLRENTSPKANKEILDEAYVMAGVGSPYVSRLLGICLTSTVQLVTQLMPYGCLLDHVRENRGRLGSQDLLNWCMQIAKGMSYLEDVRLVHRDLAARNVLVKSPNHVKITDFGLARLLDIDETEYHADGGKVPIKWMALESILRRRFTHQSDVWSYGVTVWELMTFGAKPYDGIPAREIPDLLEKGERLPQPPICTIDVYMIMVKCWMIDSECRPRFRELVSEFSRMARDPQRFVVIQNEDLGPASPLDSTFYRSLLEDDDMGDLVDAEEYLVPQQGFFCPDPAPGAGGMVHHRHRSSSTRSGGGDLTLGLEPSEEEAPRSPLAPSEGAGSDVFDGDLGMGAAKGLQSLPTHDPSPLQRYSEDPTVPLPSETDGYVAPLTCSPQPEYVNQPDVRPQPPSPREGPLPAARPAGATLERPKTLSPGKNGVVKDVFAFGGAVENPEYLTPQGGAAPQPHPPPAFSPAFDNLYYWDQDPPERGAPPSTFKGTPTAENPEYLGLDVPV

Regarding `O=C(CO)N(CCOc1cccc2ncnc(Nc3ccc(OCc4ccccn4)c(Cl)c3)c12)C1CCOCC1` [Example 21, N-{2-[(4-{[3-Chloro-4-(pyridin-2-ylmethoxy)phenyl]amino}quinazolin-5-yl)oxy]ethyl}-2-hydroxy-N-(tetrahydro-2H-pyran-4-yl)acetamide], the IC50 on EGFR tyrosine kinase is 0.414 µM; on erbB2 tyrosine kinase, 0.002 µM; in test [1] it was 0.009 µM.
In the case of `CC(O)C(=O)N(C)CCOc1cccc2ncnc(Nc3ccc(OCc4ccccn4)c(Cl)c3)c12` (stereo not drawn) [Example 28, N-{2-[(4-{[3-Chloro-4-(pyridin-2-ylmethoxy)phenyl]amino}quinazolin-5-yl)oxy]ethyl}-2-hydroxy-N-methylpropanamide], the IC50 is 0.197 µM at EGFR tyrosine kinase, 0.002 µM on erbB2 tyrosine kinase and 0.112 µM in test [1].
`CC(=O)N(C)C[C@@H](C)Oc1cccc2ncnc(Nc3ccc(Oc4ccc(C)nc4)c(C)c3)c12` [Example 104, N-Methyl-N-((2R)-2-{[4-({3-methyl-4-[(6-methylpyridin-3-yl)oxy]phenyl}amino)quinazolin-5-yl]oxy}propyl)acetamide]: the IC50 came to 1.88 µM on EGFR tyrosine kinase, 0.017 µM at erbB2 tyrosine kinase and 0.021 µM in test [1].

Usually IC50 stands for the concentration that inhibits the measured activity by half.
